Measured values: US11028066B2, “Inhibitors of lysine specific demethylase-1” (CELGENE QUANTICEL RESEARCH, INC., priority 2014, dated 2021)

Assays:
[1] = system: THP-1 (AML) cells; assay: LSD1 CD11b cellular assay (flow cytometry); format: cell-based; details: Homo sapiens, THP-1, 96 h; CD11b expressing cells, 4 days incubation
Experimental: To analyze LSD1 inhibitor efficacy in cells, a CD11b flow cytometry assay was performed. LSD1 inhibition induces CD11b expression in THP-1 (AML) cells which can be measured by flow cytometry. […] LSD1 test compounds were serially diluted in DMSO. The dilutions were added to each well accordingly to a final concentration of 0.2% DMSO. The cells were incubated at 37 degrees Celsius in 5% CO2 for 4 days. 250 μL of each well was transferred to a well in a 96 well round bottom plate. The plate was centrifuged at 1200 rpm at 4 degrees Celsius in a Beckman Coulter Alegra 6KR centrifuge for 5 minutes. The media was removed leaving the cells at the bottom of the wells. The cells were washed in 100 μL cold HBSS (Hank's Balanced Salt Solution) plus 2% BSA (Bovine Serum Albumin) solution and centrifuged at 1200 rpm at 4 degrees Celsius for 5 minutes. The wash was removed. […] The cells were centrifuged and washed two times in 100 μL HBSS plus 2% BSA. After the final spin the cells were resuspended in 100 μL HBSS plus 2% BSA containing 1 ug/mL DAPI (4′,6-diamidino-2-phenylindole). The cells were then analyzed by flow cytometry in a BD FACSAria machine. Cells were analyzed for CD11b expression. The percent of CD11b expressing cells for each inhibitor concentration was used to determine an IC50 curve for each compound analyzed.

[2] = target: full-length human LSD1 (Homo sapiens (Human), UniProt O60341); assay: In vitro enzyme inhibition assay LSD-1 (TR-FRET); format: biochemical; details: H3K4me1-biotin peptide
Experimental: This assay determines the ability of a test compound to inhibit LSD1 demethylase activity.
The enzymatic assay of LSD1 activity is based on Time Resolved-Fluorescence Resonance Energy Transfer (TR-FRET) detection.
Plates were read by EnVision Multilabel Reader in TR-FRET mode (excitation at 320 nm, emission at 615 nm and 665 nm) after 1 hour incubation at room temperature.
The ability of the compounds disclosed herein to inhibit LSD1 activity was quantified and the respective IC50 value was determined.

SMILES: CCc1ccc(-c2c(-c3ccc(C#N)cc3)nc(N3CCC(N)CC3)c(=O)n2C)cc1 [Example 27, 4-[6-(4-aminopiperidin-1-yl)-3-(4-ethylphenyl)-4-methyl-5-oxo-4,5-dihydropyrazin-2-yl]benzonitrile]
- IC50 [1]: < 100 nM
- IC50 [2]: < 100 nM

SMILES: CCc1ccc(-c2c(-c3ccc(C#N)cc3)nc(NC[C@@H]3CCNC3)c(=O)n2C)cc1 [Example 29, 4-[3-(4-ethylphenyl)-4-methyl-5-oxo-6-{[(3R)-pyrrolidin-3-ylmethyl]amino}-4,5-dihydropyrazin-2-yl]benzonitrile]
- IC50 [1]: 100 to 1000 nM
- IC50 [2]: < 100 nM

SMILES: COc1ccc(-c2c(-c3ccc(C#N)cc3)nc(N3CCC(N)CC3)c(=O)n2C)cc1 [Example 30, 4-[6-(4-aminopiperidin-1-yl)-3-(4-methoxyphenyl)-4-methyl-5-oxo-4,5-dihydropyrazin-2-yl]benzonitrile]
- IC50 [1]: < 100 nM
- IC50 [2]: < 100 nM

SMILES: COc1ccc(-c2c(-c3ccc(C#N)cc3)nc(NC[C@@H]3CCNC3)c(=O)n2C)cc1 [Example 32, 4-[3-(4-methoxyphenyl)-4-methyl-5-oxo-6-{[(3R)-pyrrolidin-3-ylmethyl]amino}-4,5-dihydropyrazin-2-yl]benzonitrile]
- IC50 [1]: 100 to 1000 nM
- IC50 [2]: < 100 nM

SMILES: Cn1c(-c2ccc(C3CC3)cc2)c(-c2ccc(C#N)cc2)nc(NC[C@H]2CCNC2)c1=O [Example 34, 4-[3-(4-cyclopropylphenyl)-4-methyl-5-oxo-6-{[(3S)-pyrrolidin-3-ylmethyl]amino}-4,5-dihydropyrazin-2-yl]benzonitrile]
- IC50 [1]: 100 to 1000 nM
- IC50 [2]: < 100 nM

SMILES: Cn1c(-c2ccc(C3CC3)cc2)c(-c2ccc(C#N)cc2)nc(NC[C@@H]2CCNC2)c1=O [Example 35, 4-[3-(4-cyclopropylphenyl)-4-methyl-5-oxo-6-{[(3R)-pyrrolidin-3-ylmethyl]amino}-4,5-dihydropyrazin-2-yl]benzonitrile]
- IC50 [1]: 100 to 1000 nM
- IC50 [2]: < 100 nM

SMILES: Cc1ccc(-c2c(-c3ccc(C#N)cc3)nc(N3CCC(N)CC3)c(=O)n2CCO)cc1 [Example 37, 4-[6-(4-amino-piperidin-1-yl)-4-(2-hydroxy-ethyl)-5-oxo-3-p-tolyl-4,5-dihydro-pyrazin-2-yl]-benzonitrile]
- IC50 [1]: < 100 nM
- IC50 [2]: < 100 nM

SMILES: N#Cc1ccc(-c2nc(N3CCC(N)CC3)c(=O)n(CCO)c2-c2ccc(C3CC3)cc2)cc1 [Example 38, 4-[6-(4-amino-piperidin-1-yl)-3-(4-cyclopropyl-phenyl)-4-(2-hydroxy-ethyl)-5-oxo-4,5-dihydro-pyrazin-2-yl]-benzonitrile]
- IC50 [1]: < 100 nM
- IC50 [2]: < 100 nM

SMILES: COCCCn1c(-c2ccc(C)cc2)c(-c2ccc(C#N)cc2)nc(N2CCC(N)CC2)c1=O [Example 39, 4-[6-(4-amino-piperidin-1-yl)-4-(3-methoxy-propyl)-5-oxo-3-p-tolyl-4,5-dihydro-pyrazin-2-yl]-benzonitrile]
- IC50 [1]: < 100 nM
- IC50 [2]: < 100 nM

SMILES: COCCn1c(-c2ccc(C)cc2)c(-c2ccc(C#N)c(F)c2)nc(N2CCC(N)CC2)c1=O [Example 41, 4-[6-(4-amino-piperidin-1-yl)-4-(2-methoxy-ethyl)-5-oxo-3-p-tolyl-4,5-dihydro-pyrazin-2-yl]-2-fluoro-benzonitrile]
- IC50 [1]: < 100 nM
- IC50 [2]: < 100 nM

SMILES: COCCn1c(-c2ccc(C)cc2)c(-c2ccc(C#N)c(F)c2)nc(NC[C@H]2CCNC2)c1=O [Example 43, 4-(6-{[((3S)-pyrrolidin-3-yl)methyl]amino}-4-(2-methoxyethyl)-3-(4-methylphenyl)-5-oxo(4-hydropyrazin-2-yl))-2-fluorobenzenecarbonitrile]
- IC50 [1]: < 100 nM
- IC50 [2]: < 100 nM

SMILES: COCCCn1c(-c2ccc(C)cc2)c(-c2ccc(C#N)c(F)c2)nc(N2CCC(N)CC2)c1=O [Example 45, 4-[6-(4-aminopiperidyl)-4-(3-methoxypropyl)-3-(4-methylphenyl)-5-oxo(4-hydropyrazin-2-yl)]-2-fluorobenzenecarbonitrile]
- IC50 [1]: < 100 nM
- IC50 [2]: < 100 nM

SMILES: Cc1ccc(-c2c(-c3ccc(C#N)cc3)nc(N3CCC(N)CC3)c(=O)n2C)cn1 [Example 49, 4-[6-(4-amino-piperidin-1-yl)-4-methyl-3-(6-methyl-pyridin-3-yl)-5-oxo-4,5-dihydro-pyrazin-2-yl]-benzonitrile]
- IC50 [1]: < 100 nM
- IC50 [2]: < 100 nM

SMILES: Cn1c(-c2ccc(C3CC3)cc2)c(-c2ccc(C#N)c(F)c2)nc(N2CCC(N)CC2)c1=O [Example 50, 4-[6-(4-amino-piperidin-1-yl)-3-(4-cyclopropyl-phenyl)-4-methyl-5-oxo-4,5-dihydro-pyrazin-2-yl]-2-fluoro-benzonitrile]
- IC50 [1]: < 100 nM
- IC50 [2]: < 100 nM

SMILES: COc1ccc(-c2c(-c3ccc(C#N)nc3)nc(N3CCC(N)CC3)c(=O)n2C)cc1 [Example 51, 5-[6-(4-amino-piperidin-1-yl)-3-(4-methoxy-phenyl)-4-methyl-5-oxo-4,5-dihydro-pyrazin-2-yl]-pyridine-2-carbonitrile]
- IC50 [1]: < 100 nM
- IC50 [2]: < 100 nM

SMILES: COc1ccc(-c2c(-c3ccc(C#N)c(F)c3)nc(N3CCC(N)CC3)c(=O)n2C)cc1 [Example 52, 4-[6-(4-amino-piperidin-1-yl)-3-(4-methoxy-phenyl)-4-methyl-5-oxo-4,5-dihydro-pyrazin-2-yl]-2-fluoro-benzonitrile]
- IC50 [1]: < 100 nM
- IC50 [2]: < 100 nM

SMILES: Cn1c(-c2ccc(C3CC3)cc2)c(-c2ccc(C#N)nc2)nc(N2CCC(N)CC2)c1=O [Example 53, 5-[6-(4-amino-piperidin-1-yl)-3-(4-cyclopropyl-phenyl)-4-methyl-5-oxo-4,5-dihydro-pyrazin-2-yl]-pyridine-2-carbonitrile]
- IC50 [1]: < 100 nM
- IC50 [2]: < 100 nM

SMILES: COc1ccc(-c2c(-c3ccc(C#N)nc3)nc(NC[C@H]3CCNC3)c(=O)n2C)cc1 [Example 54, 5-{3-(4-methoxy-phenyl)-4-methyl-5-oxo-6-[((3S)-pyrrolidin-3-ylmethyl)-amino]-4,5-dihydro-pyrazin-2-yl}-pyridine-2-carbonitrile]
- IC50 [1]: < 100 nM
- IC50 [2]: < 100 nM

SMILES: CCc1ccc(-c2c(-c3ccc(C#N)nc3)nc(NC[C@H]3CCNC3)c(=O)n2C)cc1 [Example 56, 5-{3-(4-ethyl-phenyl)-4-methyl-5-oxo-6-[((3S)-pyrrolidin-3-ylmethyl)-amino]-4,5-dihydro-pyrazin-2-yl}-pyridine-2-carbonitrile]
- IC50 [1]: < 100 nM
- IC50 [2]: < 100 nM

SMILES: CCc1ccc(-c2c(-c3ccc(C#N)c(F)c3)nc(NC[C@H]3CCNC3)c(=O)n2C)cc1 [Example 57, 4-{3-(4-ethyl-phenyl)-4-methyl-5-oxo-6-[((3S)-pyrrolidin-3-ylmethyl)-amino]-4,5-dihydro-pyrazin-2-yl}-2-fluoro-benzonitrile]
- IC50 [1]: < 100 nM
- IC50 [2]: < 100 nM

SMILES: Cn1c(-c2ccc(C3CC3)cc2)c(-c2ccc(C#N)nc2)nc(NC[C@H]2CCNC2)c1=O [Example 58, 5-{3-(4-cyclopropyl-phenyl)-4-methyl-5-oxo-6-[((3S)-pyrrolidin-3-ylmethyl)-amino]-4,5-dihydro-pyrazin-2-yl}-pyridine-2-carbonitrile]
- IC50 [1]: 100 to 1000 nM
- IC50 [2]: < 100 nM

SMILES: Cn1c(-c2ccc(C3CC3)cc2)c(-c2ccc(C#N)c(F)c2)nc(NC[C@H]2CCNC2)c1=O [Example 59, 4-{3-(4-cyclopropyl-phenyl)-4-methyl-5-oxo-6-[((3S)-pyrrolidin-3-ylmethyl)-amino]-4,5-dihydro-pyrazin-2-yl}-2-fluoro-benzonitrile]
- IC50 [1]: < 100 nM
- IC50 [2]: < 100 nM
